In paper PMC10965668, “Combined use of multiparametric high-content-screening and in vitro circadian reporter assays in neurotoxicity evaluation” (Archives of Toxicology, 2024):
Read-outs that look alike come from different tables or passages of the source. Marks after values point to notes of the source that are not given here.

Columns and labels:
Assay type in all cases: cell-based, human
U87 MG/PER2-dLuc cells [1] = assay: cells; conditions: 72 h treatment
Description: U87 MG/PER2-dLuc cells were subjected to the 3-(4, 5-dimethylthiazol-2-yl)-2, 5-diphenyl tetrazolium bromide (MTT) (M2128; Sigma-Aldrich) assay. […] Briefly, U87 MG/PER2-dLuc cells were seeded in 96-well plates at a density of 10^5 cells/mL, incubated for 48 h, and treated with relevant chemicals at various concentrations for 72 h. Subsequently, the media with chemicals were decanted and 20μl of MTT reagent solution (5 mg/ml) with 80μl of the media was added to all wells the plates and were incubated for 2 h until the formation of formazan crystals. The reagent solution was decanted, and 100μl of DMSO (D8418; Sigma-Aldrich) was added. Absorbance was measured at 570 nm using a spectrophotometer (Molecular Devices). The values of triplicate same-treatment wells were averaged.

U87 MG/PER2-dLuc cells [2] = assay: multiparametric high-content screening (HCS) assay; conditions: for LOAEL CA (calcium ion): Fluo-4 AM; for LOAEL MMP (mitochondrial membrane potential): TMRM; for lowest concentration with decrease in MMP / concentrations that decreased nuclear size: 24 h of treatment; for LOAEL LP (lipid peroxidation): BODIPY 665/676; for concentrations with increased lipid peroxidation / concentrations that changed nuclear size: 72 h of treatment; for LOAEL NC (nuclear size): Hoechst 33342; for concentrations that decreased nuclear size: p < 0.01, text; for concentrations that changed nuclear size: MHg biphasic changes, MPP + reduction
Description: A multiparametric analysis of compound toxicity at the level of individual cells was conducted using the HCS method established by Tolosa et al. ([2012]) to assess the liver toxicity of chemicals and drugs. Briefly, U87 MG/PER2-dLuc cells were seeded in 96-well plates specific for HCS at a density of 10^4 cells/well. […] Following these treatments, cells were treated with a mixture of Hoechst 33342 (Hoechst) (B2261; Sigma-Alrich) at 1.5 µg/mL to assess the nuclear size (NC), 75 ng/mL tetramethyl rhodamine methyl ester (TMRM) (T-668; Molecular Probes) as a mitochondrial membrane potential (MMP) sensor, 0.24 µM fluo-4 acetoxymethyl ester (Fluo-4 AM) (F14217; Molecular Probes) to detect intracellular calcium ions (Ca^2+), and 1.5 µg/mL of (E,E)-3,5-bis-(4-phenyl-1,3-butadienyl)-4,4-difluoro-4-bora-3a,4a-diaza-s-indacene (BODIPY 665/676) (b-3932; Molecular Probes) to evaluate lipid peroxidation. After incubation for 1 h, the cells were imaged using an IN Cell Analyzer 6000 (GE Healthcare Life Sciences) and analyzed using IN Cell Miner HCM. The data were analyzed with IN Cell Analyzer 6000 Analysis Software. Nuclear morphological alterations were assessed based on the Hoechst staining. The nucleus was defined as the main object detected using an edge detection algorithm. To separate individual cells, segmentation was applied. All measurements were restricted to live cells. Lipid peroxidation was detected based on BODIPY fluorescence intensity in the cytoplasm. The cellular MMP was defined as the TMRM fluorescence intensity in punctate cytosolic regions surrounding the nucleus. Fluo-4 intensity was used to measure changes in the cytosolic-free Ca^2+ concentration. An intensity algorithm with a fixed threshold was used to measure TMRM, Fluo-4, and BODIPY fluorescence. Each measurement was performed in individual cells. The values of triplicate same-treatment wells were averaged and normalized to the average value of vehicle control (0.1% DMSO-treated or naïve cells).
The values of triplicate same-treatment wells were averaged and normalized to the average value of the negative control group, and differences in parameters between concentrations were analyzed using one-way ANOVA followed by Duncan’s tests. A p-value < 0.05 was considered significant.

U87 MG/PER2-dLuc cells [3] = assay: in vitro cellular bioluminescence (PER2-dLuc circadian reporter) assay; conditions: for concentration that disrupted the cellular circadian rhythm / concentration with no disruptive effect on cellular circadian rhythm: Fig. 3; for LOAEL Circadian disruption: U87 MG/PER2-dLuc cells, bioluminescence monitored 5 days; for effect on cellular circadian rhythm: at disrupting concentration: MPP + ≥ 30 µM, DDT 10 µM, PMX ≥ 30 µM, CPX ≥ 40 µM, CPF 1.5 µM
Description: U-87 MG (ATCC® HTB-14™) is a well-recognized human glioblastoma cell line widely used in the field of neuroscience. U87 MG cells have a regular and strong cellular circadian rhythm after transfection with a circadian gene (i.e., BMAL1) reporter vector (Jung et al. [2013]; Slat et al. [2017]). As described in our previous report (Fang et al. [2015], [2017]), U87 MG cells were transfected with a circadian reporter vector pGL [PER2P (Luc2P/Neo)] expressing destabilized firefly luciferase driven by the human PER2 promoter using FuGene HD™ transfection reagent (LightSwitch Genomics), and stably transfected cells were selected and cultured with 1000 μg/mL G418 (Invitrogen). The stably transfected cells were used to examine the cellular circadian rhythm using an in vitro cellular bioluminescence assay. U87 MG/PER2P-dLuc cells were cultured in Eagle’s minimum essential medium (EMEM) (11430030; Gibco) supplemented with 5% fetal bovine serum (FBS) (26140079; Gibco) and 1% penicillin/streptomycin (15140122; Gibco) at 37 °C in an atmosphere of 95% humidity and 5% CO2.
(§1) Briefly, cultured U87 MG/PER2 -dLuc cells were seeded in 35-mm dishes at 3 × 10^5 cells/dish and incubated until 70–80% confluency was reached. The cells were FBS-starved for three days at 70% confluency and then synchronized with 50% horse serum (16050122; Gibco) (Balsalobre et al. [1998]). After decanting and washing, recording medium (EMEM with 20% of growing medium containing 5% FBS, 6.5 mM sodium bicarbonate, 10 mM HEPES buffer [pH 7.2], 0.1 mM luciferin [E1602; Promega], and 50 U/mL penicillin and 50 µg/mL streptomycin) was added. Subsequently, the cells were treated with each compound. The 35-mm dishes were sealed with a sterile glass cover slide using silicon grease and subjected to continuous monitoring with a LumiCycle 32™ (Actimetrics) for 5 days. The analytical method was optimized according to the instruction manual of the LumiCycle Analysis Software (Actimetrics). Using this software, data were detrended (running average), and best fits to a sine wave were estimated using the Levenberg–Marquardt algorithm for period, phase, amplitude, and damping rate measurements, as previously reported (Chen et al. [2012]; Fang et al. [2015], [2017]).

U87 MG/PER2-dLuc cells [4] = assay: cellular circadian rhythm assay with neurotoxicants in the presence of antioxidants; conditions: for restoration of circadian rhythm disrupted by CPF: 1.5 µM CPF, 20 µM NAC, 12.5 µM (or 25 µM) MSC; for effect on circadian rhythm disrupted by MHg: 2.0 µM MHg, co-treatment with NAC and MSC; for restoration of cellular rhythm disrupted by DDT: 10 µM DDT, co-treatment with NAC (10 or 20 µM) or MSC (12.5 or 25 µM); for restoration of MPP + -disrupted rhythmicity: MPP + at LOAEL, restored rhythm not similar to that of control cells
Description: as §1
The cellular circadian rhythm was recorded as described above.

[5] = Homo sapiens, U-87 MG, no unit with values, axis Concentration[μM], read-out: IC50 (cell viability, MTT; Fig. 1)
[6] = Homo sapiens, U-87 MG, read-out: IC50 (MTT, Table 1)

Compound	IC15 (MTT, Table 1) (U87 MG/PER2-dLuc cells [1]) [µM]	LOAEL CA (calcium ion) (U87 MG/PER2-dLuc cells [2]; 24-h treatment)	LOAEL MMP (mitochondrial membrane potential) (U87 MG/PER2-dLuc cells [2]; 24-h treatment)	LOAEL CA (calcium ion) (U87 MG/PER2-dLuc cells [2]; 72-h treatment)	lowest concentration with decrease in MMP (U87 MG/PER2-dLuc cells [2]) [µM]	concentration that disrupted the cellular circadian rhythm (U87 MG/PER2-dLuc cells [3]) [µM]	LOAEL Circadian disruption (U87 MG/PER2-dLuc cells [3]) [µM]	effect on cellular circadian rhythm (U87 MG/PER2-dLuc cells [3])	concentration that increased intracellular Ca2+ levels (U87 MG/PER2-dLuc cells [2]; 72-h timepoint)	LOAEL LP (lipid peroxidation) (U87 MG/PER2-dLuc cells [2]; 72-h treatment)	concentrations with increased lipid peroxidation (U87 MG/PER2-dLuc cells [2])	IC50 (U87 MG/PER2-dLuc cells [1]; read-out: IC50 (MTT, Table 1)) [µM]	also measured
CCOP(=S)(OCC)Oc1nc(Cl)c(Cl)cc1Cl [CPF, chlorpyrifos]	13.9	1.41** µM	1.41** µM	0.7** µM	1.41	1.5	1.5	abolished the cellular circadian rhythm	–	–	–	–	IC50 (U87 MG/PER2-dLuc cells [1]; [5]): 43.7 µM; IC50 (U87 MG/PER2-dLuc cells [1]; [6]): 60 µM; concentrations that increased the intracellular Ca2+ level (U87 MG/PER2-dLuc cells [2]; both the 24- and 72-h timepoints): 0.7 to 45 µM
O=C(O)c1cn(C2CC2)c2cc(N3CCNCC3)c(F)cc2c1=O [CPX, ciprofloxacin]	19.8	–	0.94** µM	0.94** µM	0.94	≥ 40	40	increased the circadian rhythm	> 0.94 µM	0.94** µM	> 0.94 µM	–	IC50 (U87 MG/PER2-dLuc cells [1]; [5]): 98.3 µM; IC50 (U87 MG/PER2-dLuc cells [1]; [6]): 98 µM; IC50 (U87 MG/PER2-dLuc cells [1]; Homo sapiens, U-87 MG, read-out: IC50 (cell viability, MTT)): 98.3 µM
Clc1ccc(C(c2ccc(Cl)cc2)C(Cl)(Cl)Cl)cc1 [DDT, 4,4′-dichlorodiphenyltrichloroethane]	18.3	30** µM	15 µM	0.47** µM	15	10	10	robust rhythm was gradually abolished	> 0.47 µM	–	–	60	LOAEL NC (nuclear size) (U87 MG/PER2-dLuc cells [2]; 24-h treatment): 120** µM; concentrations that decreased nuclear size (U87 MG/PER2-dLuc cells [2]): 120 µM
[CH3][Hg][Cl] [MHg, methylmercury (II) chloride]	2.5	–	0.5* µM	0.031** µM	0.5	2.0	–	–	above 0.03 µM	0.031** µM	above 0.031 µM	3.9	IC50 (U87 MG/PER2-dLuc cells [1]; read-out: IC50 (cell viability, MTT)): 3.97 µM; LOAEL LP (lipid peroxidation) (U87 MG/PER2-dLuc cells [2]; 24-h treatment): 8** µM; LOAEL NC (nuclear size) (U87 MG/PER2-dLuc cells [2]; 24-h treatment): 4** µM; LOAEL NC (nuclear size) (U87 MG/PER2-dLuc cells [2]; 72-h treatment): 4** µM; concentration that significantly reduced lipid peroxidation levels (U87 MG/PER2-dLuc cells [2]; 24 h after treatment): 8.0 µM; concentrations that decreased nuclear size (U87 MG/PER2-dLuc cells [2]): 4 to 8 µM; concentrations that changed nuclear size (U87 MG/PER2-dLuc cells [2]): 2 to 8 µM
C[n+]1ccc(-c2ccccc2)cc1 [MPP +, 1-methyl-4-phenylpyridinium]	68.4	40 µM	40* µM	0.63 µM	40	≥ 30	30	advanced phase and decreased amplitude	0.63 µM	160 µM	> 160 µM	93	concentration that increased intracellular Ca2+ levels (U87 MG/PER2-dLuc cells [2]; 24-h timepoint): 40 µM; LOAEL NC (nuclear size) (U87 MG/PER2-dLuc cells [2]; 72-h treatment): 80 µM; concentrations that changed nuclear size (U87 MG/PER2-dLuc cells [2]): 80 to 120 µM; concentration with no disruptive effect on cellular circadian rhythm (U87 MG/PER2-dLuc cells [3]): 10 µM
C[Se]C[C@H](N)C(=O)O [MSC, methylselenocysteine]	–	–	–	–	–	–	–	–	–	–	–	–	restoration of circadian rhythm disrupted by CPF (U87 MG/PER2-dLuc cells [4]): restored the circadian rhythm; effect on circadian rhythm disrupted by MHg (U87 MG/PER2-dLuc cells [4]): reduced the first high-altitude peak; restoration of cellular rhythm disrupted by DDT (U87 MG/PER2-dLuc cells [4]): restored the cellular rhythm; restoration of MPP + -disrupted rhythmicity (U87 MG/PER2-dLuc cells [4]): restore the cellular circadian rhythm to a certain extent
CC(=O)N[C@@H](CS)C(=O)O [NAC, N-acetyl-L-cysteine]	–	–	–	–	–	–	–	–	–	–	–	–	restoration of circadian rhythm disrupted by CPF (U87 MG/PER2-dLuc cells [4]): restored the circadian rhythm; effect on circadian rhythm disrupted by MHg (U87 MG/PER2-dLuc cells [4]): reduced the first high-altitude peak; restoration of cellular rhythm disrupted by DDT (U87 MG/PER2-dLuc cells [4]): restored the cellular rhythm; restoration of MPP + -disrupted rhythmicity (U87 MG/PER2-dLuc cells [4]): restore the cellular circadian rhythm to a certain extent
polymyxin B [PMX]	49	–	3.91* µM	3.91** µM	3.91	≥ 30	30	advanced phase and decreased amplitude	–	–	–	51	concentration with no disruptive effect on cellular circadian rhythm (U87 MG/PER2-dLuc cells [3]): 15 µM
